Laboratory results taken from BindingDB's records for doi:10.1111/j.1747-0285.2010.01036.x (Ataturk University, 2010).

These compounds were tested against Serum paraoxonase/arylesterase 1 (Homo sapiens, UniProt P27169) (assay: In Vitro Inhibtion Assay).
Experimental: The inhibitory effects of six sulfonamide derivatives was examined against the purified enzyme hPON1 and were tested in a triplicate experiment in five different concentrations (0.15, 0.3, 0.45, 0.6, and 0.75 mM).

Serum paraoxonase/arylesterase 1, sequence (P27169 whole entry): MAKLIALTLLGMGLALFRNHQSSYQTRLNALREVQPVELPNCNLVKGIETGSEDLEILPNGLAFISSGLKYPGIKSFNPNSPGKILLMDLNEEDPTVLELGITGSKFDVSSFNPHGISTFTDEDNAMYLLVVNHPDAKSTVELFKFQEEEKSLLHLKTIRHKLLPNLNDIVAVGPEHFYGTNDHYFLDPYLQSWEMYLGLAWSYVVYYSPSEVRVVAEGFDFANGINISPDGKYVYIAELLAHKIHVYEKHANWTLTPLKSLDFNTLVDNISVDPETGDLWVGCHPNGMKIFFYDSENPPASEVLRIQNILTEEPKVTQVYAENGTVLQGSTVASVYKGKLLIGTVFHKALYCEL

| Structure (SMILES) | IC50 [µM] | Ki [µM] |
| --- | --- | --- |
| NS(=O)(=O)c1cc(C(=O)O)c(NCc2ccco2)cc1Cl [4-chloro-2-[(furan-2-ylmethyl)amino]-5-sulfamoylbenzoic acid] | 360 | 702 |
| Nc1nnc(S(N)(=O)=O)s1 [1,3,4-thiadiazole-2-sulfonamide 15] | 1240 | 2010 |
| CC(=O)Nc1nnc(S(N)(=O)=O)s1 [Acetazolamide, AAZ] | 800 | 743 |

The remaining lines, values ahead:

| IC50 [µM] | Ki [µM] | Structure (SMILES) |
| --- | --- | --- |
| 180 | 86 | CC(=O)NS(=O)(=O)c1ccc(N)cc1 [Cetamide] |
| 190 | 340 | NCc1ccc(S(N)(=O)=O)cc1 [aromatic sulfonamide compound 6] |
